# US20080214537A1, “BRIDGED PHENANTHRIDINES” (CARA THERAPEUTICS, INC., priority 2007, published 2008)
# Legend:
# [1] = target: human CB1 receptor (hCB1) (Homo sapiens, UniProt P21554); experiment: cAMP assay (LANCE TR-FRET) in CHO-K1 cells expressing hCB1; assay type: cell-based; settings: activity on hCB1 represents inverse agonism; for Emax: CHO-K1, percent of range defined by CP55,940 (1 μM = 100%), read-out: hCB1 % Max Range; for EC50: CHO-K1 cells stably expressing hCB1, intracellular cAMP, NKH-477 prestimulated
# Experimental: (§1) The ability of compounds to act as agonists or inverse agonists at human CB2 and CB1 receptors (hCB2, hCB1, respectively) was determined by measuring changes in intracellular cAMP levels. Chinese Hamster Ovary (CHO-K1) cell lines stably expressing hCB2 (Genebank: X74328) or hCB1 (Genebank: X54937) were purchased from Euroscreen (Gosselies, Belgium).
# (§2) Cell lines were grown in suspension in EX-CELL 302 CHO Serum-free medium (Sigma, catalog #14324C) supplemented with 1% Fetal Bovine Serum, glutamine and with or without non-essential amino-acids under 0.4 mg/mL G418 selection.
# (§3) Receptor mediated responses were determined by measuring changes in intracellular cAMP using LANCE cAMP detection kit (catalog #AD0264, PerkinElmer, Wellesley, Mass.) based on time-resolved fluorescence resonance energy transfer (TR-FRET). Changes in cAMP were determined in cells pre-incubated with IBMX (isobutyl methylxanthine) and prestimulated with NKH-477 (a water soluble forskolin derivative, catalog #1603, Tocris, Ellisville, Mo.) to increase basal cAMP levels as detailed below.
# (§4) On the day of the experiment, cells were spun at low speed for 5 min at room temperature. The supernatant was removed and cells were resuspended in stimulation buffer (Hanks Buffered Salt Solution/5 mM HEPES, containing 0.5 mM IBMX (catalog #17018, Sigma) and 0.02% BSA (PerkinElmer, catalog #CR84-100)). Cell clumps were removed by filtering through cell strainer 40 μm (BD Falcon, Discovery Labware, Bedford, Mass.) and diluted to 2×10^5 cells/mL. Antibody supplied with the LANCE cAMP immunoassay kit was then added according to the manufacturer's instructions. An aliquot of cells was taken for un-induced controls. To the remaining cells was added NKH-477 (a water soluble forskolin derivative, Tocris catalog #1603) to a final concentration of 2-8 μM. Cells were then incubated for either 25 or 30 min at room temperature prior to adding to Proxiplates containing test compounds (final DMSO concentration was less than 0.5%) with a Multidrop bulk dispenser, followed by a sixty minute incubation at room temperature. The response was stopped by addition of the detection mix supplied with the LANCE kit.
# (§5) The reagents were allowed to equilibrate for three hours prior to reading on an Envision multi-mode detector (PerkinElmer). TR-FRET was measured using a 330-380 nm excitation filter, 615 and 665 nm emission filters, dichroic mirror 380 nm and Z=1 mm.
# (§6) Cyclic AMP concentrations in each well were back-calculated from a cAMP standard curve run concurrently during each assay. Each plate contained 16 wells of forskolin stimulated cells and 16 wells of forskolin plus CP55,940-treated. CP55,940-treated cells were treated with CP55,940 (Tocris catalog #0949) at 1 μM and the maximal response was used as the full range (100%) standard. WIN55,212 (Tocris catalog #1038) was used as an internal standard. Concentrations of cAMP were expressed as a percent of the difference of these two groups of wells. Concentration-response data including EC50 (the concentration of compound producing 50% of the maximal response) and intrinsic activity (the percent maximal activation compared to full activation by CP55,940) were determined using a four-parameter non-linear regression algorithm (Xlfit equation 251, IDBS).
# [2] = target: human CB2 receptor (hCB2) (Homo sapiens, UniProt P34972); experiment: cAMP assay (LANCE TR-FRET) in CHO-K1 cells expressing hCB2; assay type: cell-based; settings: for Emax: CHO-K1, intrinsic activity: percent maximal activation compared to full activation by CP55,940 (1 μM = 100%), read-out: hCB2 % Max Range; for EC50: CHO-K1 cells stably expressing hCB2, intracellular cAMP, NKH-477 prestimulated, average of at least three replicates
# Experimental: as §1, §2, §3, §4, §5
# as §6, with “IDBS). Assays were performed with at least three replicates per compound and averaged results for the several compounds of the invention are shown in Table I.” for “IDBS).”
# Sequence of human CB2 receptor (hCB2) (P34972 whole entry): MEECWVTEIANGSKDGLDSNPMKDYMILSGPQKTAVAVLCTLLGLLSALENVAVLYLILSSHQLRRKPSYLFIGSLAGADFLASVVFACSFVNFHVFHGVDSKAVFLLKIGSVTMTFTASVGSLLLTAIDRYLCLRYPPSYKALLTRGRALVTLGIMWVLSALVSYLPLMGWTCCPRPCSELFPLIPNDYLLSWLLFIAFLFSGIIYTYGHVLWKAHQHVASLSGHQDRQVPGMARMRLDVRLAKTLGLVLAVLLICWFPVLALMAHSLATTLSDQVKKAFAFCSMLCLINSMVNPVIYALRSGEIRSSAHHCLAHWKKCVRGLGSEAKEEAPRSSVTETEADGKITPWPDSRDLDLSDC
# Sequence of human CB1 receptor (hCB1) (P21554 whole entry): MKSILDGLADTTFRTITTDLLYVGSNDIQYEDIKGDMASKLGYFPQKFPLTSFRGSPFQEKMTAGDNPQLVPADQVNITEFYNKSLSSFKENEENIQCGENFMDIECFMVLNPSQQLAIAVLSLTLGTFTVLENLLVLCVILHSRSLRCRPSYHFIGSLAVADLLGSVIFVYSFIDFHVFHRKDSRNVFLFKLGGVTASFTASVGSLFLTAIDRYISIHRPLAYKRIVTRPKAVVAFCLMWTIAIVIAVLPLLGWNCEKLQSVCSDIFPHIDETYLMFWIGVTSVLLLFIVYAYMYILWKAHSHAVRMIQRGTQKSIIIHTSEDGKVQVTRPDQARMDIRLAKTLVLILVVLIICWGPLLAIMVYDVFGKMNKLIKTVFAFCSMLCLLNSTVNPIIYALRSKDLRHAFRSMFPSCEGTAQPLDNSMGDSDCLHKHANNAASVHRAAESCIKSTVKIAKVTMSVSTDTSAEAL
SMILES,Emax [1] [%],EC50 [1] [µM],Emax [2] [%],EC50 [2] [µM],"hCB1 % Max Range ([1]; percent of range defined by CP55,940 (1 μM = 100%)) [%]"
"CCCNC(=O)Nc1ccc2c(c1)C1C3CCC(C3)C1C(c1c(Cl)cccc1Cl)N2 (centres unmarked) [(26), Bridged 1-(6-(2,6-dichlorophenyl)-5,6,6a,7,8,9,10,10a-octahydrophenanthridin-2-yl)-3-propylurea]",< 40,> 10,< 40,> 10,
"O=C(NCC1CC1)c1ccc2c(c1)C1C3CCC(C3)C1C(c1ccccc1)N2 (centres unmarked) [Compound (2d), Methylene bridged N-(cyclopropylmethyl)-6-phenyl-5,6,6a,7,8,9,10,10a-octahydrophenanthridine-2-carboxamide]",< 40,> 10,84,0.019,
"CC(C)S(=O)(=O)Nc1ccc2c(c1)C1C3CCC(C3)C1C(c1ccccc1)N2 (centres unmarked) [(51), Bridged N-(6-phenyl-5,6,6a,7,8,9,10,10a-octahydrophenanthridin-2-yl)propane-2-sulfonamide]",100,2.21,96.8,0.00162,
"CN(C)S(=O)(=O)c1ccc2c(c1)C1CC=CC1C(c1ccccc1)N2 (centres unmarked) [(49), N,N-dimethyl-4-phenyl-3a,4,5,9b-tetrahydro-1H-cyclopenta[c]quinoline-8-sulfonamide]",61.8,1.04,< 40,> 10,
"CC(C)S(=O)(=O)N1c2ccc(S(=O)(=O)N(C)C)cc2C2C3CCC(C3)C2C1c1ccccc1 (centres unmarked) [(50), Bridged 5-(isopropylsulfonyl)-N,N-dimethyl-6-phenyl-5,6,6a,7,8,9,10,10a-octahydrophenanthridine-2-sulfonamide]",< 40,> 10,81.2,1.5,
"O=C(CC1CCCO1)Nc1ccc2c(c1)C1C3CCC(C3)C1C(c1ccccc1)N2 (centres unmarked) [(14), Bridged N-(6-phenyl-5,6,6a,7,8,9,10,10a-octahydrophenanthridin-2-yl)-2-(tetrahydrofuran-2-yl) acetamide]",< 40,> 10,92,0.0091,
"CCCNC(=S)Nc1ccc2c(c1)C1C3CCC(C3)C1C(c1ccc(C)cc1)N2 (centres unmarked) [(8), Bridged 1-propyl-3-(6-p-tolyl-5,6,6a,7,8,9,10,10a-octahydrophenanthridin-2-yl)thiourea]",63,2.04,< 40,> 10,
"CC(=O)Nc1ccc2c(c1)C1C3CCC(C3)C1C(c1ccc(C)cc1)N2 (single isomer, unassigned) [(25a), Bridged N-(6-p-tolyl-5,6,6a,7,8,9,10,10a-octahydrophenanthridin-2-yl)acetamide]",,3.28,< 40,> 10,78
"CCCCC(=O)Nc1ccc2c(c1)C1C3CCC(C3)C1C(c1ccc(C)cc1)N2 (centres unmarked) [(29), Bridged N-(6-p-tolyl-5,6,6a,7,8,9,10,10a-octahydrophenanthridin-2-yl)pentanamide]",< 40,> 10,54.8,0.0667,
"CN(C1CCCCC1)S(=O)(=O)c1ccc2c(c1)C1C3CCC(C3)C1C(c1ccccc1)N2 (centres unmarked) [(38), Bridged N-cyclohexyl-N-methyl-6-phenyl-5,6,6a,7,8,9,10,10a-octahydrophenanthridine-2-sulfonamide]",< 40,> 10,79.5,0.0085,
"CC(=O)Nc1ccc(C2Nc3ccc(S(=O)(=O)N(C)C)cc3C3C4CCC(C4)C23)cc1 (centres unmarked) [(32), Bridged N-(4-(2-(N,N-dimethylsulfamoyl)-5,6,6a,7,8,9,10,10a-octahydrophenanthridin-6-yl)phenyl)acetamide]",< 40,> 10,81.3,0.225,
"COCCC(=O)Nc1ccc2c(c1)C1C3CCC(C3)C1C(c1ccc(C)cc1)N2 (centres unmarked) [(15), Bridged 3-methoxy-N-(6-p-tolyl-5,6,6a,7,8,9,10,10a-octahydrophenanthridin-2-yl)propanamide]",56,2.36,< 40,> 10,
"CC(=O)NS(=O)(=O)c1ccc2c(c1)C1C3CCC(C3)C1C(c1ccnn1C)N2 (centres unmarked) [(47), Bridged N-(6-(1-methyl-1H-pyrazol-5-yl)-5,6,6a,7,8,9,10,10a-octahydrophenanthridin-2-ylsulfonyl)acetamide]",< 40,> 10,82.5,1.49,
"O=C(Nc1ccc2c(c1)C1C3CCC(C3)C1C(c1ccccc1)N2)C1CC1 (centres unmarked) [(19), Bridged N-(6-phenyl-5,6,6a,7,8,9,10,10a-octahydrophenanthridin-2-yl)cyclopropanecarboxamide]",53,1.7,49,0.187,
"Cc1nc(-c2ccc3c(c2)C2C4CCC(C4)C2C(c2ccnn2C)N3)cs1 (centres unmarked) [(44), Bridged 2-methyl-4-(6-(1-methyl-1H-pyrazol-5-yl)-5,6,6a,7,8,9,10,1 0a-octahydrophenanthridin-2-yl)thiazole]",111,2.93,70.2,0.187,
"CN(C)S(=O)(=O)c1ccc2c(c1)C1C3CCC(C3)C1C(c1cncnc1)N2 (centres unmarked) [(30), Bridged N,N-dimethyl-6-(pyrimidin-5-yl)-5,6,6a,7,8,9,10,10a-octahydrophenanthridine-2-sulfonamide]",< 40,> 10,99.3,0.0728,
"CC(=O)Nc1ccc2c(c1)C1C3CCC(C3)C1C(c1c(Cl)cccc1Cl)N2 (centres unmarked) [(24), Bridged N-(6-(2,6-dichlorophenyl)-5,6,6a,7,8,9,10,10a-octahydrophenanthridin-2-yl)acetamide]",< 40,> 10,< 40,> 10,
"CCCNC(=O)Nc1ccc2c(c1)C1C3CCC(C3)C1C(c1ccccc1)N2 (centres unmarked) [Compound (5d), Bridged 1-(6-phenyl-5,6,6a,7,8,9,10,10a-octahydrophenanthridin-2-yl)-3-propylurea]",46,2.15,73,0.289,
"CCCNC(=S)Nc1ccc2c(c1)C1C3CCC(C3)C1C(c1c(Cl)cccc1Cl)N2 (centres unmarked) [(27), Bridged 1-(6-(2,6-dichlorophenyl)-5,6,6a,7,8,9,10,10a-octahydrophenanthridin-2-yl)-3-propylthiourea]",< 40,> 10,< 40,> 10,
"O=S(=O)(c1ccc2c(c1)C1C3CCC(C3)C1C(c1ccccc1)N2)N1CCCC1 (centres unmarked) [(41), Bridged 6-phenyl-2-(pyrrolidin-1-ylsulfonyl)-5,6,6a,7,8,9,10,10a-octahydrophenanthridine]",< 40,> 10,104,0.00081,
